Common to all, as to assay: cell-based
The target of assay [1] is human CB1 receptor (Homo sapiens, UniProt P21554).
Assay [2] concerns the target human CB2 receptor (Homo sapiens, UniProt P34972). It is filed as cell-based.
In assay [3] the target is T1, rat CB2 receptor (Rattus norvegicus, UniProt Q9QZN9).
T1 sequence (Q9QZN9 1-360): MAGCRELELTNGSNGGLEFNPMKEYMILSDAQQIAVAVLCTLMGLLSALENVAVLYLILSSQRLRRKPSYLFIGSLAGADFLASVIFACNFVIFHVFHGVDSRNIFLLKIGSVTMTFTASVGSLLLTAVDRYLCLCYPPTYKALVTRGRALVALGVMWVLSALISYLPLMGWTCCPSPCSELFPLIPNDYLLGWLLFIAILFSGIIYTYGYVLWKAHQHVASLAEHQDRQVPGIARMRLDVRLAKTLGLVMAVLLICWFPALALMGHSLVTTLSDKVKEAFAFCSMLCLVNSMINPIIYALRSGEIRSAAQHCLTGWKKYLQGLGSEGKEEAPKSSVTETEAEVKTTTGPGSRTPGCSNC
Type of assay: cell-based.

Setting [4] is: change in intracellular cAMP, CHO-K1 hCB2 cells, class AR, read-out: EC50 values for human CB2 receptor.
Setting [5] is: asterisk at the compound number.

Where two headings read alike, the source gives them in different places.

Sequence of human CB2 receptor (P34972 whole entry): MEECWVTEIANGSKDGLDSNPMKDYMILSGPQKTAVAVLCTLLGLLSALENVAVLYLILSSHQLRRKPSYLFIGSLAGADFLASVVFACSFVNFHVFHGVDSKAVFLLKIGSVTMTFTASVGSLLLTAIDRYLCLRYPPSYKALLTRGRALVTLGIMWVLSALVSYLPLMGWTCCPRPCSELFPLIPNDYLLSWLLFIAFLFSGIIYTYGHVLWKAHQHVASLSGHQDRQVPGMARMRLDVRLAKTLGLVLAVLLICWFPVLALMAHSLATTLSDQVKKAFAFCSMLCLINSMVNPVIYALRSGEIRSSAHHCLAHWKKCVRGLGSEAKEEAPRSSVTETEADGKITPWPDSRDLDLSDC
Sequence of human CB1 receptor (P21554 whole entry): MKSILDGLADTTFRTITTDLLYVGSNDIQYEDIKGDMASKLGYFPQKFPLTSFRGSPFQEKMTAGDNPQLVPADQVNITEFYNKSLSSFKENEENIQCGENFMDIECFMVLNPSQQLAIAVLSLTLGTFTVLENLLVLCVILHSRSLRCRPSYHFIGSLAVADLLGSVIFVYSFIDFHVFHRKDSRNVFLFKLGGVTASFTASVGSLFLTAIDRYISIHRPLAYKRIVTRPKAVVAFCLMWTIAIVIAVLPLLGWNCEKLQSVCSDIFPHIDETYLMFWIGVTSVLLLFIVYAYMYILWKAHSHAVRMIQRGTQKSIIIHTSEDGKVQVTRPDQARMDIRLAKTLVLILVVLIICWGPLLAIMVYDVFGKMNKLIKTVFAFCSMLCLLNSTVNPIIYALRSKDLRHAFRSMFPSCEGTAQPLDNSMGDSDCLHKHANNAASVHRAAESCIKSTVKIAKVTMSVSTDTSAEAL

`CCN(CC)C(=O)c1cnc2c(c1)N(S(=O)(=O)c1cccnc1)CCO2` [Example 18, N,N-diethyl-1-(pyridin-3-ylsulfonyl)-2,3-dihydro-1H-pyrido[2,3-b][1,4]oxazine-7-carboxamide]: the EC50 in assay [1] and in assay [2] (setting [4]) was over 30 µM each time. In the case of `COCCCNC(=O)c1cnc2c(c1)N(S(=O)(=O)c1cccnc1)CCO2` [Example 19, N-(3-methoxypropyl)-1-(pyridin-3-ylsulfonyl)-2,3-dihydro-1H-pyrido[2,3-b][1,4]oxazine-7-carboxamide], the EC50 in assay [1] and in assay [2] (setting [4]) was over 30 µM in each case.

On to `Cn1cnc(S(=O)(=O)N2CCOc3ncc(C(=O)NC(C)(C)C)cc32)c1` [Example 30, N-tert-butyl-1-(1-methyl-1H-imidazol-4-ylsulfonyl)-2,3-dihydro-1H-pyrido-[2,3-b][1,4]oxazine-7-carboxamide], for which the EC50 in assay [1] and in assay [2] (setting [4]) was over 30 µM in each case. As to `Cn1cnc(S(=O)(=O)N2CCOc3ncc(C(=O)NC4CCCC4)cc32)c1` [Example 31, N-cyclopentyl-1-(1-methyl-1H-imidazol-4-ylsulfonyl)-2,3-dihydro-1H-pyrido[2,3-b][1,4] oxazine-7-carboxamide], the EC50 in assay [1] and in assay [2] (setting [4]) was over 30 µM each time. Take `O=C(N[C@@H]1CCC[C@H]1O)c1cnc2c(c1)N(S(=O)(=O)c1ccc(Cl)c(Cl)c1)CCO2` [Example 133, 1-(3,4-dichlorophenyl-sulfonyl)-N-((1R,2R)-2-hydroxycyclopentyl)-2,3-dihydro-1H-pyrido[2,3-b][1,4]oxazine-7-carboxamide]: the values for the EC50 in assay [1] and in assay [3] were over 30 µM and at most 0.03 µM, respectively.

As for `O=C(NC1CCC1)c1cnc2c(c1)N(S(=O)(=O)c1ccc(Cl)c(Cl)c1)CCO2` [Example 137, N-cyclobutyl-1-(3,4-dichlorophenylsulfonyl)-2,3-dihydro-1H-pyrido[2,3-b][1,4]oxazine-7-carboxamide], the half-maximal effective concentration (EC50) is over 30 µM in assay [1] and at most 0.03 µM in assay [3]. With `O=C(NCc1ccccc1)c1cnc2c(c1)N(S(=O)(=O)c1ccc(Cl)c(Cl)c1)CCO2` [Example 138, N-benzyl-1-(3,4-dichlorophenylsulfonyl)-2,3-dihydro-1H-pyrido[2,3-b][1,4]oxazine-7-carboxamide], the figures for the EC50 in assay [1] and in assay [3] were over 30 µM and at most 0.03 µM, respectively. The like results for `CCOC(=O)C1(NC(=O)c2cnc3c(c2)N(S(=O)(=O)c2ccc(Cl)c(Cl)c2)CCO3)CCC1` [Example 139, ethyl 1-(1-(3,4-dichloro-phenylsulfonyl)-2,3-dihydro-1H-pyrido[2,3-b][1,4]oxazine-7-carboxamido)cyclobutane-carboxylate] were, in that order, over 30 µM and at most 0.03 µM. Taken in the same sequence, the figures for `CC(C)(C)NC(=O)c1cnc2c(c1)N(S(=O)(=O)N1CCOCC1)CCO2` [Example 140, N-tert-butyl-1-(morpholinosulfonyl)-2,3-dihydro-1H-pyrido[2,3-b][1,4]oxazine-7-carboxamide] were over 30 µM and at most 0.03 µM. As to `CC(C)(CO)NC(=O)c1cnc2c(c1)N(S(=O)(=O)N1CCCCC1)CCO2` [Example 146, N-(1-hydroxy-2-methylpropan-2-yl)-1-(piperidin-1-ylsulfonyl)-2,3-dihydro-1H-pyrido[2,3-b][1,4]oxazine-7-carboxamide], the 50% effective concentration (EC50) was over 30 µM in assay [1] and at most 0.03 µM in assay [3].

On to `CC(C)(C)NC(=O)c1cnc2c(c1)N(S(=O)(=O)N1CCC(F)CC1)CCO2` [Example 166, N-tert-butyl-1-(4-fluoropiperidin-1-ylsulfonyl)-2,3-dihydro-1H-pyrido[2,3-b][1,4]oxazine-7-carboxamide], for which the EC50 in assay [1] was over 30 µM; in assay [3], at most 0.03 µM.

In the case of `CC(C)(CO)CNC(=O)c1cnc2c(c1)N(S(=O)(=O)N1CCC(F)CC1)CCO2` [Example 169, 1-(4-fluoropiperidin-1-ylsulfonyl)-N-(3-hydroxy-2,2-dimethylpropyl)-2,3-dihydro-1H-pyrido[2,3-b][1,4]oxazine-7-carboxamide], the values for the half-maximal effective concentration (EC50) in assay [1] and in assay [3] were over 30 µM and at most 0.03 µM, respectively. Taken in the same sequence, the figures for `CC1CCN(S(=O)(=O)N2CCOc3ncc(C(=O)NC(C)(C)C)cc32)CC1` [Example 170, N-tert-butyl-1-(4-methylpiperidin-1-ylsulfonyl)-2,3-dihydro-1H-pyrido[2,3-b][1,4]oxazine-7-carboxamide] were over 30 µM and at most 0.03 µM.

Regarding `CCC(C)(C)NC(=O)c1cnc2c(c1)N(S(=O)(=O)N1CCC(C)CC1)CCO2` [Example 171, 1-(4-methylpiperidin-1-ylsulfonyl)-N-tert-pentyl-2,3-dihydro-1H-pyrido[2,3-b][1,4]oxazine-7-carboxamide], the EC50 is over 30 µM in assay [1] and at most 0.03 µM in assay [3]. Taken in the same sequence, the figures for `CC1CCN(S(=O)(=O)N2CCOc3ncc(C(=O)NC(C)(C)CO)cc32)CC1` [Example 172, N-(1-hydroxy-2-methylpropan-2-yl)-1-(4-methylpiperidin-1-ylsulfonyl)-2,3-dihydro-1H-pyrido[2,3-b][1,4]oxazine-7-carboxamide] were over 30 µM and at most 0.03 µM.

Consider `CC(C)(C)NC(=O)c1cnc2c(c1)N(S(=O)(=O)NCc1ccccc1)CCO2` [Example 178, 1-(N-benzylsulfamoyl)-N-tert-butyl-2,3-dihydro-1H-pyrido[2,3-b][1,4]oxazine-7-carboxamide], for which the EC50 in assay [1] is over 30 µM; in assay [3] it was at most 0.03 µM. The like results for `CC(C)CNS(=O)(=O)N1CCOc2ncc(C(=O)NC(C)(C)C)cc21` [Example 180, N-tert-butyl-1-(N-isobutylsulfamoyl)-2,3-dihydro-1H-pyrido[2,3-b][1,4]oxazine-7-carboxamide] were, in that order, over 30 µM and at most 0.03 µM. For the compound `CC(C)CNS(=O)(=O)N1CCOc2ncc(C(=O)NCC(C)(C)CO)cc21` [Example 182, N-(3-hydroxy-2,2-dimethylpropyl)-1-(N-isobutylsulfamoyl)-2,3-dihydro-1H-pyrido[2,3-b][1,4]oxazine-7-carboxamide], the 50% effective concentration (EC50) in assay [1] was over 30 µM; in assay [3] it was at most 0.03 µM. Regarding `CC(C)(CO)NC(=O)c1cnc2c(c1)N(S(=O)(=O)N1CC(F)(F)C1)CCO2` [Example 195, 1-(3,3-difluoroazetidin-1-ylsulfonyl)-N-(1-hydroxy-2-methylpropan-2-yl)-2,3-dihydro-1H-pyrido[2,3-b][1,4]oxazine-7-carboxamide], the EC50 in assay [2] is over 30 µM. On to `C[C@@H]1CCC[C@H](C)N1C(=O)c1cnc2c(c1)N(S(=O)(=O)c1ccc(C(F)(F)F)cc1)CCO2` [Example 197, (cis-2,6-dimethylpiperidin-1-yl)(1-(4-(trifluoromethyl)phenylsulf-onyl)-2,3-dihydro-1H-pyrido[2,3-b][1,4]oxazin-7-yl)methanone], for which the concentration giving a half-maximal response (EC50) was over 30 µM in assay [1] and at most 0.03 µM in assay [3]. `O=C(NC1(CO)CCC1)c1cnc2c(c1)N(S(=O)(=O)c1ccc(Cl)c(Cl)c1)CCO2` [Example 209, 1-(3,4-dichlorophenylsulfonyl)-N-(1-(hydroxymethyl)cyclobutyl)-2,3-dihydro-1H-pyrido[2,3-b][1,4]oxazine-7-carboxamide]: the EC50 was over 30 µM in assay [1] and at most 0.03 µM in assay [3].

For the compound `CCc1noc(-c2cnc3c(c2)N(S(=O)(=O)c2ccccc2)CCO3)n1` [Example 210, 7-(3-ethyl-1,2,4-oxadiazol-5-yl)-1-(phenylsulfonyl)-2,3-dihydro-1H-pyrido[2,3-b][1,4]oxazine], the EC50 was over 30 µM in assay [1] and at most 0.03 µM in assay [3]. In the case of `O=S(=O)(c1ccccc1)N1CCOc2ncc(-c3nnc(-c4ccccc4)o3)cc21` [Example 211, 7-(5-phenyl-1,3,4-oxadiazol-2-yl)-1-(phenylsulfonyl)-2,3-dihydro-1H-pyrido[2,3-b][1,4]oxazine], the concentration giving a half-maximal response (EC50) in assay [1] is over 30 µM. Also, the “inverse agonist mark, rat CB2 receptor” value in assay [3] (setting [5]) is listed as 181, 188, 189, 190, 195, 200, 201, 202, 204, 211*, 214*, 220, 221,. As for `O=C(NC1CCCC1)c1noc(-c2cnc3c(c2)N(S(=O)(=O)c2ccc(F)cc2)CCO3)n1` [Example 213, N-cyclopentyl-5-(1-(4-fluorophenylsulfonyl)-2,3-dihydro-1H-pyrido[2,3-b][1,4]oxazin-7-yl)-1,2,4-oxadiazole-3-carboxamide], in assay [2] (setting [5]), the “inverse agonist mark, human CB2 receptor” value is reported as 175, 178, 179, 181, 198, 204, 205, 213*, 214, 215, 216, 219, 220,. Consider `CC1(C)N=C(c2cnc3c(c2)N(S(=O)(=O)c2ccc(C(F)(F)F)cc2)CCO3)NO1` [Example 223, 7-(5,5-dimethyl-2,5-dihydro-1,2,4-oxadiazol-3-yl)-1-(4-(trifluoromethyl)phenylsulfonyl)-2,3-dihydro-1H-pyrido[2,3-b][1,4]oxazine], for which the EC50 in assay [1] was over 30 µM; in assay [3], at most 0.03 µM.

For `CC1(C)CN=C(c2cnc3c(c2)N(S(=O)(=O)c2ccc(C(F)(F)F)cc2)CCO3)NC1` [Example 225, 7-(5,5-dimethyl-1,4,5,6-tetrahydropyrimidin-2-yl)-1-(4-(trifluoromethyl)phenylsulfonyl)-2,3-dihydro-1H-pyrido[2,3-b][1,4]oxazine], the concentration giving a half-maximal response (EC50) in assay [1] and in assay [3] was over 30 µM each time. With `O=S(=O)(c1ccc(C(F)(F)F)cc1)N1CCOc2ncc(-c3ncc(-c4ccccc4)[nH]3)cc21` [Example 226, 7-(5-phenyl-1H-imidazol-2-yl)-1-(4-(trifluoromethyl)phenylsulfonyl)-2,3-dihydro-1H-pyrido[2,3-b][1,4]oxazine], the EC50 in assay [2] (setting [4]) was over 30 µM.
